# Experimental data from PubChem BioAssay AID2060494 (Molecular Pharmacology Branch, DTP, NCI, 2025).
# Test system: 435261-313-R-J1-PDC complex spheroid viability
# Assay: Anticancer human tumor 435261-313-R-J1-PDC patient-derived colon adenocarcinoma cell line growth inhibition [GQUAD]
# Conditions: for IC50: curve of first compound; for viability, T/C: stronger effect = lower value
# Procedure, shortened: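 Tumor cells were grown as complex spheroids with HUVEC endothelial cells and mesenchymal stem cells as stroma. G-quadruplex stabilizers were combined with targeted agents over half-log dilutions from near the clinical Cmax, or from 10 microM.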
# [1] = second compound 0.0316 µM, first compound 0.0316 µM
# [2] = second compound 0.0316 µM, first compound 0.1 µM
# [3] = second compound 0.0316 µM, first compound 0.316 µM
# [4] = second compound 0.0316 µM, first compound 1 µM
# [5] = second compound 0.0316 µM, first compound 3.16 µM
# [6] = second compound 0.0316 µM, first compound 10 µM
# [7] = second compound 0.1 µM, first compound 0.0316 µM
# [8] = second compound 0.1 µM, first compound 0.1 µM
# [9] = second compound 0.1 µM, first compound 0.316 µM
# [10] = second compound 0.1 µM, first compound 1 µM
# [11] = second compound 0.1 µM, first compound 3.16 µM
# [12] = second compound 0.1 µM, first compound 10 µM
# [13] = second compound 0.316 µM, first compound 0.0316 µM
# [14] = second compound 0.316 µM, first compound 0.1 µM
# [15] = second compound 0.316 µM, first compound 0.316 µM
# [16] = second compound 0.316 µM, first compound 1 µM
# [17] = second compound 0.316 µM, first compound 3.16 µM
# [18] = second compound 0.316 µM, first compound 10 µM
# [19] = second compound 1 µM, first compound 0.0316 µM
# [20] = second compound 1 µM, first compound 0.1 µM
# [21] = second compound 1 µM, first compound 0.316 µM
# [22] = second compound 1 µM, first compound 1 µM
# [23] = second compound 1 µM, first compound 3.16 µM
# [24] = second compound 1 µM, first compound 10 µM
# [25] = second compound 3.16 µM, first compound 0.0316 µM
# [26] = second compound 3.16 µM, first compound 0.1 µM
# [27] = second compound 3.16 µM, first compound 0.316 µM
# [28] = second compound 3.16 µM, first compound 1 µM
# [29] = second compound 3.16 µM, first compound 3.16 µM
# [30] = second compound 3.16 µM, first compound 10 µM
# [31] = second compound 10 µM, first compound 0.0316 µM
# [32] = second compound 10 µM, first compound 0.1 µM
# [33] = second compound 10 µM, first compound 0.316 µM
# [34] = second compound 10 µM, first compound 1 µM
# [35] = second compound 10 µM, first compound 3.16 µM
# [36] = second compound 10 µM, first compound 10 µM
# 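Also: spheroids exposed to the agents for seven days before readout.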
# 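For viability, T/C in this document: percent of vehicle control viability with DMSO wells as 100%.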
compound,measurement,setting,value
CC(=O)O[C@H]1C(=O)[C@@]2(C)[C@H]([C@H](OC(=O)c3ccccc3)[C@]3(O)C[C@H](OC(=O)[C@H](O)[C@@H](NC(=O)c4ccccc4)c4ccccc4)C(C)=C1C3(C)C)[C@]1(OC(C)=O)CO[C@@H]1C[C@@H]2O + Cc1[nH]c2ccc(F)cc2c1-c1nc2c3cccnc3c3ncccc3c2[nH]1,IC50,second compound 0.0316 µM,> 10 µM
same,IC50,second compound 0.1 µM,> 10 µM
same,IC50,second compound 0.316 µM,> 10 µM
same,IC50,second compound 1 µM,< 0.0316 µM
same,IC50,second compound 3.16 µM,< 0.0316 µM
same,IC50,second compound 10 µM,< 0.0316 µM
same,"viability, T/C",[1],67.5%
same,"viability, T/C",[2],71.4%
same,"viability, T/C",[3],74.7%
same,"viability, T/C",[4],65.8%
same,"viability, T/C",[5],63.8%
same,"viability, T/C",[6],76.8%
same,"viability, T/C",[7],83.2%
same,"viability, T/C",[8],78.5%
same,"viability, T/C",[9],78.1%
same,"viability, T/C",[10],57.8%
same,"viability, T/C",[11],69.2%
same,"viability, T/C",[12],71%
same,"viability, T/C",[13],63.4%
same,"viability, T/C",[14],66.2%
same,"viability, T/C",[15],52.5%
same,"viability, T/C",[16],48.9%
same,"viability, T/C",[17],51%
same,"viability, T/C",[18],60%
same,"viability, T/C",[19],41.5%
same,"viability, T/C",[20],48.1%
same,"viability, T/C",[21],53%
same,"viability, T/C",[22],46.4%
same,"viability, T/C",[23],47.2%
same,"viability, T/C",[24],42.2%
same,"viability, T/C",[25],41.6%
same,"viability, T/C",[26],40.8%
same,"viability, T/C",[27],40.1%
same,"viability, T/C",[28],24.6%
same,"viability, T/C",[29],29%
same,"viability, T/C",[30],29.1%
same,"viability, T/C",[31],25.7%
same,"viability, T/C",[32],32.3%
same,"viability, T/C",[33],26.7%
same,"viability, T/C",[34],24.4%
same,"viability, T/C",[35],21.9%
same,"viability, T/C",[36],28%
CC(C)(O)C1CCC(Nc2ccc3ncc(-c4cccc(C(F)(F)F)c4)n3n2)CC1 (centres undefined) + Cc1[nH]c2ccc(F)cc2c1-c1nc2c3cccnc3c3ncccc3c2[nH]1,IC50,second compound 0.0316 µM,0.605 µM
same,IC50,second compound 0.1 µM,0.683 µM
same,IC50,second compound 0.316 µM,0.52 µM
same,IC50,second compound 1 µM,0.229 µM
same,IC50,second compound 3.16 µM,< 0.0316 µM
same,IC50,second compound 10 µM,< 0.0316 µM
same,"viability, T/C",[1],85.1%
same,"viability, T/C",[2],93.4%
same,"viability, T/C",[3],79%
same,"viability, T/C",[4],27.4%
same,"viability, T/C",[5],6.6%
same,"viability, T/C",[6],11.2%
same,"viability, T/C",[7],80%
same,"viability, T/C",[8],79.6%
same,"viability, T/C",[9],98.3%
same,"viability, T/C",[10],32.2%
same,"viability, T/C",[11],8.63%
same,"viability, T/C",[12],8.09%
same,"viability, T/C",[13],92.8%
same,"viability, T/C",[14],90.7%
same,"viability, T/C",[15],64.5%
same,"viability, T/C",[16],31.5%
same,"viability, T/C",[17],3.9%
same,"viability, T/C",[18],11.5%
same,"viability, T/C",[19],63.4%
same,"viability, T/C",[20],61%
same,"viability, T/C",[21],44.1%
same,"viability, T/C",[22],27.3%
same,"viability, T/C",[23],6.32%
same,"viability, T/C",[24],5.71%
same,"viability, T/C",[25],23.6%
same,"viability, T/C",[26],19.2%
same,"viability, T/C",[27],30.8%
same,"viability, T/C",[28],22.3%
same,"viability, T/C",[29],3.91%
same,"viability, T/C",[30],3.07%
same,"viability, T/C",[31],18.3%
same,"viability, T/C",[32],20.8%
same,"viability, T/C",[33],18.5%
same,"viability, T/C",[34],20.4%
same,"viability, T/C",[35],1.4%
same,"viability, T/C",[36],3.39%
